From PMC11494886, “Discovery and design of molecular glue enhancers of CDK12–DDB1 interactions for targeted degradation of cyclin K” (RSC Chemical Biology, 2024)
Like-named read-outs stand apart in the source and are kept apart here.

What was measured:
Cdk12/CycK and DDB1ΔB [1] = molecular target: T1, Cdk12/CycK and DDB1ΔB (Homo sapiens, UniProt Q16531+Q9NYV4, DEL396-705); assay: Dynamic light scattering of SEC peak fractions; format: binding; conditions: SEC peak middle fractions, vs negative controls
T1 construct: the Cdk12 (714–1063)/CycK (1–267) complex and the DDB1ΔB protein; made in house; host or cells: Sf9 insect cells (MultiBacTurbo)
T1 sequence (Q9NYV4 714-1063, stated change not applied): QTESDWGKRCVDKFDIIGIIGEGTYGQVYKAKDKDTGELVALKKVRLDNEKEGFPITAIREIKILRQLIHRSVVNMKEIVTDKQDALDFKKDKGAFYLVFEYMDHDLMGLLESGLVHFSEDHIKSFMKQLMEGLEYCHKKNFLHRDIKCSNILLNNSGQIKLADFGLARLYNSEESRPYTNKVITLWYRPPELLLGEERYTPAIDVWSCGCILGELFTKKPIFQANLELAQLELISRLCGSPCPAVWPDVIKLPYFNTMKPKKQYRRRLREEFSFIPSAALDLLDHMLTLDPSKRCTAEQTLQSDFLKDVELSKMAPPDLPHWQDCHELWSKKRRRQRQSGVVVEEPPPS
T1 sequence (O75909 1-267 partner limits assumed): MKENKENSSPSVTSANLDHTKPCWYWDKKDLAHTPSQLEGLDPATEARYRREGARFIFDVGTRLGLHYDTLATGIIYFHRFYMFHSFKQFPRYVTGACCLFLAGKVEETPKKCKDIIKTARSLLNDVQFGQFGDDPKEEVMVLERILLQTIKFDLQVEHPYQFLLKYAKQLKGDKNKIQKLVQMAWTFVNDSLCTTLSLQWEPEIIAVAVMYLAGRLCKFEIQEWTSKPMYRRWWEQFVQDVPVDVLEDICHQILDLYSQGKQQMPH
T1 sequence (Q16531 with tags, fused parts or gaps DEL396-705): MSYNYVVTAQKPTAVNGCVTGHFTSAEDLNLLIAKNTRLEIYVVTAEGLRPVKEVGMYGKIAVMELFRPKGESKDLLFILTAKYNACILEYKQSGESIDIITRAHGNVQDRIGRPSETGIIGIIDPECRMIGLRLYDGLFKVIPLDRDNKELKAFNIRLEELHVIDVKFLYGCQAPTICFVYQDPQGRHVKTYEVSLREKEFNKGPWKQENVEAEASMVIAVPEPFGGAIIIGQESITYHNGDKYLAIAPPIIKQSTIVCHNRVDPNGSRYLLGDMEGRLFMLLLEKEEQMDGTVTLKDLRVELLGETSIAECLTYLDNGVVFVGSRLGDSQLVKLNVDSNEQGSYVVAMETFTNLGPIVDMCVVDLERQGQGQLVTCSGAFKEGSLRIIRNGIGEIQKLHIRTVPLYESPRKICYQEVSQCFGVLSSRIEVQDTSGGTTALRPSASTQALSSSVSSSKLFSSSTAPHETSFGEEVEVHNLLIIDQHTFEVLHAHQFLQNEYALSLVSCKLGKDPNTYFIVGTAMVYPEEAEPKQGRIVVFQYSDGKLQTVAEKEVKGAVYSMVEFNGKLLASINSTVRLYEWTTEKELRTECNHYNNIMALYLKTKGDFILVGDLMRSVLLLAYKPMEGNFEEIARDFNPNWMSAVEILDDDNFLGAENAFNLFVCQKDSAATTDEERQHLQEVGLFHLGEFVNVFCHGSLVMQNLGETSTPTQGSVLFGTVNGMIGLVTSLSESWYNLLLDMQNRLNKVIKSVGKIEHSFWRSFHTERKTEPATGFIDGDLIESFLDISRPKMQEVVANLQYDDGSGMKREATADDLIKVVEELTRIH
Description: To evaluate particle size distribution in liquid solution, dynamic light scattering was employed. Specifically, 10 μL fractions from the central region of peaks obtained in analytical size exclusion chromatography runs were analyzed. This analysis was performed using a DynaPro NanoStar 672 (Wyatt Technology) in a disposable DLS MicroCuvette (Wyatt Technology), while maintaining a constant temperature of 25 °C. Each measurement was conducted with an acquisition time of 3 s, and each data point depicted in the Results section represents the average of 20 individual DLS measurements. The hydrodynamic radius of the protein samples was determined using the processing and analysis software DYNAMICS.

Cdk12/CycK and DDB1ΔB [2] = molecular target: T1, Cdk12/CycK and DDB1ΔB; assay: Analytical size-exclusion chromatography of DDB1ΔB and Cdk12/CycK; format: binding; conditions: 20 μM proteins, 60 μM compound, vs DMSO and THZ531
Description: Analytical size-exclusion chromatography was employed to investigate compound-induced protein–protein interactions between the heterodimeric Cdk12 (714–1063)/CycK (1–267) complex and the RING E3 ligase-associated adaptor protein DDB1ΔB. The analysis was conducted on an Agilent 1260 Infinity II HPLC system (Agilent Technologies), coupled with a Superdex 200 Increase 3.2/300 column (Cytiva), pre-equilibrated in Cdk12 SEC buffer (20 mM Hepes pH 7.8, 400 mM NaCl, 1 mM TCEP) supplemented with 1 g L^−1 carboxymethyl-dextran. Purified proteins, combined in equimolar ratios (20 μM Cdk12/CycK and DDB1ΔB, respectively) were supplemented with 3-fold molar excess of small molecular compounds. The resulting protein mixtures were diluted to a final volume of 25 μL using the kinases SEC-buffer ensuring a final DMSO concentration of 2%, followed by an incubation period of 10 min. Upon injection into the analytical system, the chromatography was conducted at a controlled flow rate of 0.05 mL min^−1, with protein absorbance monitored at 280 nm wavelength. Peak fractions were collected drop by drop and subsequently subjected to analysis via dynamic light scattering (DLS) to assess their size distribution, along with SDS-PAGE analysis to determine the composition of the protein complex.

Cdk12/CycK and DDB1ΔB [3] = molecular target: T1, Cdk12/CycK and DDB1ΔB; assay: GST pulldown assay, recruitment of DDB1ΔB to Cdk12/CycK; format: binding; conditions: GST-Cdk12/GST-CycK bait, 5 μM compound, vs DMSO
Description: The pulldown assay was utilized to identify drug-triggered protein–protein interactions involving the Cdk12 (714–1063)/CycK (1–267) complex and the DDB1ΔB protein. In this assay, purified GST-tagged Cdk12 construct complexed with GST-CycK was combined with equimolar amounts of His6-tagged DDB1ΔB (5 μM) in the presence of 5 μM of the respective small molecular compound in pulldown assay buffer (50 mM Hepes pH 7.4, 200 mM NaCl, 0.25 mM TCEP, 0.05% (v/v) Tween20), ensuring a 2% total DMSO concentration. Experimental controls included samples supplemented with 2% DMSO instead of compound as well as samples devoid of the GST-tagged Cdk12/CycK complex. Each sample was individually added to approximately 50 μL of pre-equilibrated glutathione agarose beads (Thermo Fisher Scientific). The bead suspensions were then subjected to a 2 h incubation period at room temperature with gentle agitation. After incubation, the beads were pelleted by centrifugation at 700 × g for 4 min, the supernatant was discarded, and the beads were washed three-times with 100 μL of pulldown assay buffer. Following the washing step, bound proteins were eluted from the beads with 50 μL of pulldown assay buffer supplemented with 10 mM GSH for 1 h at room temperature under rotation. Subsequently, the beads were again pelleted by centrifugation at 700 × g for 4 min and the resulting supernatants containing eluted protein fractions were mixed with 6 × SDS sample buffer at a 1 : 1 (v/v) ratio. The eluted protein samples were separated by SDS-PAGE and subjected to Coomassie brilliant blue staining for visualization and analysis.

CDK12/cyclin K + DDB1 = molecular target: T2, CDK12/cyclin K + DDB1 (Homo sapiens, UniProt Q16531+Q9NYV4, DEL396-705); assay: Microscale thermophoresis, ternary complex formation; format: binding; conditions: MST
T2 construct: The kinase domain of human CDK12 (Uniprot: Q9NYV4; a.a; 715–1050); GST (N, cleaved yes); made in house; host or cells: Spodoptera frugiperda SF9 insect cells (Bac-to-Bac); CDK12/cyclin K co-infected with S. cerevisiae CAK1
T2 sequence (Q16531 with tags, fused parts or gaps DEL396-705): as above
T2 sequence (Q9NYV4 715-1050, stated change not applied): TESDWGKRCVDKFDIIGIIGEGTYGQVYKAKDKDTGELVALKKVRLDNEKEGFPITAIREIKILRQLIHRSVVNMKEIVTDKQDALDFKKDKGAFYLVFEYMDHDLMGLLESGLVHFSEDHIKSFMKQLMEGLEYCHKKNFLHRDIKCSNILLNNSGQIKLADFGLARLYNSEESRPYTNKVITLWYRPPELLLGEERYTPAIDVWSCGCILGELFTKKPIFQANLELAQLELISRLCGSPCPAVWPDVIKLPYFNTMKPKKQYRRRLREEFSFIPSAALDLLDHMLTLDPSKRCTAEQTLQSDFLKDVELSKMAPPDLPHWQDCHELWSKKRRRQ
T2 sequence (O75909 11-267 partner limits assumed): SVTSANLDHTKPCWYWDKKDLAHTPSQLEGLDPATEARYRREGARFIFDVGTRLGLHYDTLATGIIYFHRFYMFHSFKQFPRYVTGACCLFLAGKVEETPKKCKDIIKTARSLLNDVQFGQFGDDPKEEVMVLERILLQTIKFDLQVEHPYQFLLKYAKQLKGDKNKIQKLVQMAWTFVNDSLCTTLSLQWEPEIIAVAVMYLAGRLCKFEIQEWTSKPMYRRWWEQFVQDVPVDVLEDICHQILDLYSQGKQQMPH
Description: Finally, the capacity of small molecules to induce a ternary complex between CDK12/cyclin K and DDB1 in vitro was assessed by microscale thermophoresis (MST). Labeled DDB1ΔBPB was combined with purified CDK12/cyclin K, and fluorescence intensity was monitored with increasing compound concentrations.
Cell pellets were harvested 48 hours post infection via centrifugation and lysed in buffer A (50 mM Tris–HCl (pH 8.0), 200 mM NaCl, 10 mM imidazole, 0.5 mM tris(2-carboxyethyl) phosphine (TCEP)) supplemented with EDTA-free Pierce™ protease inhibitor tablet (Thermo Fisher Scientific). […] The concentrated protein at 2 mg mL^−1 was flash-frozen in liquid nitrogen and stored at −80 °C.
Full-length S. cerevisiae CAK1 (Uniprot: P43568) with an N-terminal His6 tag was subcloned into pFastBac 1 vector. […] The eluted CDK12/cyclin K complex was concentrated to 2 mg mL^−1, flash-frozen in liquid nitrogen and stored at −80 °C.
A protocol to assess ternary binding of molecular glues with CDK12/cycK and DDB1 by MST was established using published procedures for PROTAC interaction with bromodomains and E3 ubiquitin ligases.[38] His8-DDB1-ΔBPB was labeled with the MO-L018 Monolith™ His-tag Labeling Kit RED-tris-NTA 2nd Generation (NanoTemper Technologies) following the instruction manual. 100 nM dye was mixed with 200 nM DDB1 in 50 mM HEPES pH 7.5, 150 mM NaCl, 5% glycerol, 0.05% Tween, and incubated at room temperature for 30 min. […] MST traces were recorded using standard parameters: 5 s MST power off, 30 s MST power on and 5 s MST power off. Measurements were taken at −1 to 0 s (cold region) and 9–10 s (hot region). Data were analyzed using a fitting function derived from the law of mass action:1 [drawing 6] where f(c) is the fluorescence signal (Fnorm) at a given ligand concentration (c), B is Fnorm of fully liganded DDB1 at high ligand concentrations, U is Fnorm of DDB1 alone at low ligand concentrations, Kd is the dissociation constant or binding affinity, cT is the final concentration of DDB1 in the assay (Fig. 3G). For normalization, the data were first transformed using eqn (2) where y is the fraction bound, followed by fitting to eqn (3) (Fig. 5B–E).2 [drawing 7] 3 [drawing 8]

CDK12 = CDK12 (Homo sapiens, UniProt Q9NYV4); assay: CDK12 functional (kinase inhibition) assay; format: biochemical; conditions: vs MR-1187
Sequence of CDK12 (Q9NYV4 whole entry): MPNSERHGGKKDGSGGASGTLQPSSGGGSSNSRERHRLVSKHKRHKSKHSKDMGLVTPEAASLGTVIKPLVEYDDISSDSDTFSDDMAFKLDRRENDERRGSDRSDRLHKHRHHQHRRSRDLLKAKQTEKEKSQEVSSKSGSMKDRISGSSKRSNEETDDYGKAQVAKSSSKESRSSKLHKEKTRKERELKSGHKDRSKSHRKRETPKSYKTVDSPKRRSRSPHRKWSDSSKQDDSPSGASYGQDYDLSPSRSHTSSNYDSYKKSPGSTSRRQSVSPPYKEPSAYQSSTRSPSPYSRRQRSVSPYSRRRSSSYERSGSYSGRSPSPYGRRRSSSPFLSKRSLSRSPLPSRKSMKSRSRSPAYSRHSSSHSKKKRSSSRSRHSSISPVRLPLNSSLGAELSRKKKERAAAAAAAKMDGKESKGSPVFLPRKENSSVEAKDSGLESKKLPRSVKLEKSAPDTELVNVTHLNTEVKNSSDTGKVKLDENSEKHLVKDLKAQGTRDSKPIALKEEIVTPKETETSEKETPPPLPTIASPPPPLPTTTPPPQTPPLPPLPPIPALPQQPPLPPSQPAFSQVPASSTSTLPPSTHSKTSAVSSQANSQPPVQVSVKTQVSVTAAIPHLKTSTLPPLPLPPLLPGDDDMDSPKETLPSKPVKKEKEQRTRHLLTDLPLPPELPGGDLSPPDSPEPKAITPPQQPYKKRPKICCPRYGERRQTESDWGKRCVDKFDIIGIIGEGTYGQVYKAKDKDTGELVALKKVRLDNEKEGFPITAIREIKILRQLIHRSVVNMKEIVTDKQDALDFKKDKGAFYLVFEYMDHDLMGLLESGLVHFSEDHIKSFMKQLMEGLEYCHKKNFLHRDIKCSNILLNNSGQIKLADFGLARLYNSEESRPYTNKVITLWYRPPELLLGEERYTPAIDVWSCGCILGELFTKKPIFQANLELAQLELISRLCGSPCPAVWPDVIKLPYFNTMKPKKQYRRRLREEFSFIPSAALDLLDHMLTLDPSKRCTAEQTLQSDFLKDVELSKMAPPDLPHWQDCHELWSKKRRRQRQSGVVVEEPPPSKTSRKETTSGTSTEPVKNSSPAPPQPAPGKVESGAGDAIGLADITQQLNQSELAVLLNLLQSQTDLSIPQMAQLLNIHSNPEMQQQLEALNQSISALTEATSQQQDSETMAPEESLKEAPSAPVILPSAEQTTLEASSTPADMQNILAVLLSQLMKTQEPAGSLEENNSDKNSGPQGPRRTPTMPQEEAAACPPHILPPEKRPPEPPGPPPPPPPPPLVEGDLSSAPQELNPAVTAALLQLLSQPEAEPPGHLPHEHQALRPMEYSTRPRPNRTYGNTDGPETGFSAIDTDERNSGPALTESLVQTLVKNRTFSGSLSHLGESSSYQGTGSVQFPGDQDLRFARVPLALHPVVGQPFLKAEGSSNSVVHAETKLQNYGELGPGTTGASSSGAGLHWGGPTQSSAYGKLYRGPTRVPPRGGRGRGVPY
Sequence of CDK12 (O75909 whole entry partner): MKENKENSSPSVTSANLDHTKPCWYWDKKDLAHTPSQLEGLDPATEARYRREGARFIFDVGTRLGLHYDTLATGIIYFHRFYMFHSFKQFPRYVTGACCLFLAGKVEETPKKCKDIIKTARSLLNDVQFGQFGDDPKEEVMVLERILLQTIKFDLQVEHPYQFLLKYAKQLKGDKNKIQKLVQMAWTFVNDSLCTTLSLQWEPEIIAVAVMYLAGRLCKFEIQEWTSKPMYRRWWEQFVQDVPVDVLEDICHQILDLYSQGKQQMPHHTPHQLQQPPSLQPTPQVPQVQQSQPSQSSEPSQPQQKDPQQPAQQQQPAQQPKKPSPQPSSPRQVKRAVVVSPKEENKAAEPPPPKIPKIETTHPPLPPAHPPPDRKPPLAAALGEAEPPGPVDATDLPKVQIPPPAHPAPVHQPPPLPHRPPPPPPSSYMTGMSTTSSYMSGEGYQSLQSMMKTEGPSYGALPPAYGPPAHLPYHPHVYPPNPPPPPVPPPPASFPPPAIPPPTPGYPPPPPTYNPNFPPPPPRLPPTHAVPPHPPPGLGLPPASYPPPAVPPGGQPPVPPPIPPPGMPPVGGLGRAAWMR

HiBiT-tagged cyclin K = assay: HiBiT cyclin K degradation assay (DC50, Dmax); format: cell-based; conditions: HiBiT-CCNK KI A549 cells, 2 hours, vs DMSO
Description: Next, we utilized HiBiT technology (Promega) for quantitative analysis of cyclin K degrader activity. […] Importantly, knockout of CDK12 using CRISPR/Cas9 protected cyclin K from SR-4835-induced degradation (Fig. 1D). We verified the depletion of CDK12 in HEK-293T cells (Fig. S3, ESI ^†).
The HiBiT-CCNK KI A549 cells (Promega) were seeded in 384 well plate and treated with the test compounds for 2 hours in a dose dependent manner. Nano-Glo® HiBiT Lytic Detection System (Promega) composed of the Nano-Glo® HiBiT Lytic Substrate, Nano-Glo® HiBiT Lytic Buffer and LgBiT Protein was used as per the manufacturer's instructions. Briefly, a 2× Nano-Glo® HiBiT Lytic Detection Reagent mixture was prepared by adding 20 μL of Nano-Glo® HiBiT Lytic Substrate and 10 μL of LgBiT protein per every 1 mL of Nano-Glo® HiBiT Lytic Buffer. After incubating the cells with the 2× Nano-Glo® HiBiT Lytic Detection Reagent mixture, luminescence was measured. HiBiT tagged cyclin K present at any given concentration was measured by normalizing the luminescence signal at that concentration to the luminescence signal from the DMSO (control) cells. The concentration necessary to achieve a 50% reduction in cyclin K levels (DC50) and the maximum achievable reduction in cyclin K levels (Dmax) was computed from this assay.

cyclin K = assay: Immunofluorescence of nuclear cyclin K in MDA-MB-231 cells; format: cell-based, human; conditions: MDA-MB-231 cells, 0.5 µM, 2 h
Description: Cells were fixed with 4% PFA in PBS at room temperature, permeabilized with 0.1% Triton X-100 in PBS, and blocked with 3% BSA in PBS at room temperature. Cells were incubated with primary antibodies overnight at 4 °C, followed by incubation with Alexa-Fluor conjugated secondary antibodies for 1 hour at room temperature. Cell nuclei were stained using DAPI. Images were acquired on a confocal microscope (Leica). ImageJ and QuPath were used for image analysis.
Figure S8. Immunofluorescence staining for cyclin K degradation. MDA-MB-231 cells were
treated for 2 h with either DMSO or the indicated compounds (0.5 µM) . Cells were fixed and
Nuclei were stained with DAPI (blue). […]

SMILES | hydrodynamic radius (DLS) (Cdk12/CycK and DDB1ΔB [1]) | retention time in analytical SEC (ternary complex formation) (Cdk12/CycK and DDB1ΔB [2]) | recruitment of DDB1ΔB in pulldown (Cdk12/CycK and DDB1ΔB [3]) | Kd (CDK12/cyclin K + DDB1; labeled DDB1 + CDK12/cyclin K, run #1, read-out: Kd ternary complex formation, replicate #1) [nM] | Kd (CDK12/cyclin K + DDB1; labeled DDB1 + CDK12/cyclin K, run #2, read-out: Kd ternary complex formation, replicate #2) [nM] | Kd (CDK12/cyclin K + DDB1; labeled DDB1 + CDK12/cyclin K, run #3, read-out: Kd ternary complex formation, replicate #3) [nM] | Kd (CDK12/cyclin K + DDB1; labeled DDB1ΔBPB 10 nM + CDK12/cyclin K 1000 nM, mean of replicates, read-out: Kd ternary complex formation (average)) [nM] | fold better CDK12 kinase inhibition compared to MR-1187 (CDK12) [fold] | Dmax (maximum reduction in cyclin K levels) (HiBiT-tagged cyclin K) [%] | cyclin K nuclear intensity compared to control (cyclin K)
CC[C@H](CO)Nc1nc(NCc2ccc(-c3ccccn3)cc2)c2ncn(C(C)C)c2n1 [CR8, reference compound] | significantly increased | reduced retention times | enrichment of DDB1ΔB fractions |  |  |  |  |  |  | 
CCc1cnn2c(NCc3nc4cc(Cl)c(Cl)cc4[nH]3)cc(N3CCCC[C@H]3CCO)nc12 [MR-1226, (S)-2-(1-(7-(((5,6-Dichloro-1H-benzo[d]imidazol-2-yl)methyl)amino)-3-ethylpyrazolo[1,5-a]pyrimidin-5-yl)piperidin-2-yl)ethan-1-ol] |  |  |  | 8.7 ± 2.7 | 10.3 ± 4 | 9.6 ± 3.3 | 9.5 | 35 | > 95 | reduced
